Test results: patent publication US9066922B2, “Pharmaceutical composition for the treatment or prevention of diseases involving obesity, diabetes, metabolic syndrome, neuro-degenerative diseases and mitochondria dysfunction diseases” (MD BIOALPHA CO., LTD., priority 2005, dated 2015)

What was measured:
AMPK = experiment: Determination of AMPK activation in C2C12 myoblast cells (SAMS peptide, [γ-32P]ATP); assay type: cell-based; settings: differentiated C2C12 myoblast cells, 5 μg/ml, compared with control (DMSO 0.5% = 1)
Experimental: Myoblast cells, C2C12, were cultured in DMEM containing 10% bovine calf serum. When a cell density reached a range of about 85% to 90%, the culture medium was replaced with a medium containing 1% bovine calf serum to induce differentiation of cells. The thus-differentiated myoblast cells were treated with samples synthesized in Examples 1 through 29 at a concentration of 5 μg/ml, and compared with a control group. Enzymatic activity of AMPK was determined as follows. Firstly, C2C12 cells were lysed to obtain protein extracts and then ammonium sulfate was added to a final concentration of 30%, thereby precipitating proteins. Protein precipitates were dissolved in a buffer (62.5 mM Hepes, pH 7.2, 62.5 mM NaCl, 62.5 mM NaF, 1.25 mM Na pyrophosphate, 1.25 mM EDTA, 1 mM DTT, 0.1 mM PMSF, and 200 μM AMP). Thereafter, 200 μM SAMS peptide (HMRSAMSGLHLVKRR: the underlined serine residue is a phosphorylation site, as an AMPK phosphorylation site of acetyl-CoA carboxylase) and [γ-32P]ATP were added thereto and reactants were reacted for 10 minutes at 30° C. This was followed by spotting of the resulting reaction solution on p81 phosphocellulose paper. The p81 paper was washed with a 3% phosphoric acid solution and radioactivity thereof was measured. For each reaction condition, reactions involving no SAMS peptide were also conducted and basic values were subtracted from the thus-observed values.

[1] = tested on: mRNAs of ACC1, ACC2, FAS, LPL, SCD1; experiment: Expression of genes involved in lipid metabolism in DIO mice (real-time quantitative PCR); assay type: in vivo, C57BL/6 mice; settings: 50 mg/kg daily oral, vs control group
Experimental: In order to investigate anti-obesity effects of β-lapachone, β-lapachone was administered daily to diet-induced obesity (DIO) mice at a dose of 50 mg/kg via an oral route, and an attempt was made to confirm levels of mRNAs of acetyl CoA carboxylase (ACC) 1 (7,8), ACC2 (9), fatty acid synthase (FAS) (10,11), lipoprotein lipase (LPL) (12-15), and stearoyl-CoA desaturase 1 (SCD1) (16,17), which participate in lipid metabolism in the liver and gonadal adipose tissues, by real-time quantitative PCR. These enzymes are very important for lipid metabolism; it is known that ACC catalyzes formation of malonyl CoA from acetyl CoA, FAS catalyzes formation of palmitate from malonyl CoA, and SCD1 catalyzes formation of monounsaturated fat, thus playing a critical role in formation of triacylglycerol, a major energy store. As such, these enzymes are closely correlated with obesity, diabetes, and lipid metabolism-related diseases. […] Therefore, from the results of such increased or decreased expression of genes for the above-mentioned enzymes, it can be inferred that β-lapachone will be therapeutically effective substance for the treatment of metabolic syndromes.

[2] = tested on: mRNAs of PGC1α, NRF1, mtTFA, COX 4 and 7; experiment: Gene expression of proteins involved in mitochondrial biogenesis in DIO mice; assay type: in vivo, C57BL/6 mice; settings: 50 mg/kg daily oral, liver and gonadal adipose tissues, vs control group
Experimental: β-lapachone was administered daily to diet-induced obesity (DIO) mice at a dose of 50 mg/kg via an oral route, and levels of mRNAs of peroxisome proliferator-activated receptor coactivator alpha 1 (PGC1α) (23,24), nuclear respiratory factor 1 (NRF1) (25-27), mitochondrial transcription factor (mtTFA) (25-27), and cytochrome c oxidase (COX) 4 and 7 (28,29) in the liver and gonadal adipose tissues were confirmed by real-time quantitative PCR. Proteins shown in FIG. 10 are representative enzymes responsible for regulation of biogenesis of mitochondria which plays a critical role in biosynthesis of energy in cells, and are also known to be involved in regulation of various physiological events.

UCP 1 & 2 genes = experiment: Expression of transcripts of UCP1 and UCP2 genes in DIO mice; assay type: in vivo, C57BL/6 mice; settings: 50 mg/kg daily oral, liver and gonadal adipose tissues
Experimental: β-lapachone was administered daily to diet-induced obesity (DIO) mice at a dose of 50 mg/kg via an oral route, and levels of transcripts of uncoupling protein 1 & 2 (UCP 1 & 2) genes in the liver and gonadal adipose tissues was measured using real-time quantitative PCR. UCP 1 & 2 are enzymes that perform energy expenditure via heat generation, and it is reported that these enzymes function to consume energy without involving production of reactive oxygen species (ROS) and are also closely correlated with the incidence of obesity (38,39).

DIO C57BL/6 mice = experiment: Spontaneous locomotor activity in DIO C57BL/6 mice; assay type: in vivo; settings: 3 hours after administration, measured for 7 hours, vs vehicle and control groups
Experimental: β-lapachone was administered to DIO C57BL/6 mice, and 3 hours later, spontaneous locomotor activity was measured using Versa MAX Activity Monitors & Analyzer (AccuSan Instruments, Columbus, Ohio). The monitor used to measure motion of animals was a 41 cm×41 cm Plexiglas chamber (height: 30 cm) equipped with infrared rays at intervals of 2.5 cm along the x- and y-axes, respectively, whereby 16 scanning lines are respectively arranged on front/rear and right/left sides of the chamber. In order to distinguish between spontaneous locomotor and stereotypic/grooming behavior, animal activity was measured by taking continuous interference of two different scanning lines caused by mice as an effective determination standard. A β-lapachone-administered group, a vehicle-administered group and a control group were respectively placed in each measuring apparatus, and activity and motion of animals were measured for 7 hours. For acclimation of animal to new environment, mice were placed in the apparatus 2 hours prior to measurement.

[3] = liver and gonadal adipose tissues

With `CC1(C)CCC2=C(O1)c1ccccc1C(=O)C2=O` [Compound 1, β-Lapachone] the AMPK fold (AMPK) was 2.2 fold, the “expression level of mRNA of ACC1” value [1, 3] was “remarkably decreased” and the “expression level of mRNA of ACC2” value [1, 3] was “remarkably decreased”. The “expression level of mRNA of FAS” value [1, 3] was “remarkably decreased”, the “expression level of mRNA of LPL (listed among decreased)” value [1, 3] was “remarkably decreased” and the “expression level of mRNA of SCD1” value [1, 3] was “remarkably decreased”. The “LPL mRNA levels, increase” value [1] was 2 fold, the “COX 4 mRNA level” value [2] was “increased levels of mRNAs” and the “COX 7 mRNA level” value [2] was “increased levels of mRNAs”. For the same compound, the “NRF1 mRNA level” value [2] was “increased levels of mRNAs”, the “PGC1α mRNA level” value [2] was “increased levels of mRNAs” and the “mtTFA mRNA level” value [2] was “increased levels of mRNAs”. For the same compound, the “UCP1 mRNA level” value (UCP 1 & 2 genes) was “significant increases in mRNA levels”, the “UCP2 mRNA level” value (UCP 1 & 2 genes) was “significant increases in mRNA levels” and the spontaneous locomotor activity (DIO C57BL/6 mice) was “significant difference in motion and locomotor activity”.
